Measured values published in PubChem BioAssay (NCI).
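48-hour exposure; five concentrations; linearly interpolated endpoints. The concentration for 50% growth inhibition is given as GI50. TGI: total growth inhibition.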

How the values were obtained:
Experiment in all cases: NCI-60 cell line screen, 48 h; in the data active = GI50 below about 0.43 µM; inactive = the rest
786-0 renal = system: 786-0 renal
A498 renal = system: A498 renal
A549 NSCLC = system: A549 NSCLC
ACHN renal = system: ACHN renal
BT-549 breast = system: BT-549 breast
CAKI-1 renal = system: CAKI-1 renal
COLO 205 colon = system: COLO 205 colon
DU-145 prostate = system: DU-145 prostate
HCC-2998 colon = system: HCC-2998 colon
HCT-116 colon = system: HCT-116 colon
HCT-15 colon = system: HCT-15 colon
HOP-62 NSCLC = system: HOP-62 NSCLC
HOP-92 NSCLC = system: HOP-92 NSCLC
HS 578T breast = system: HS 578T breast
HT29 colon = system: HT29 colon
IGROV1 ovarian = system: IGROV1 ovarian
KM12 colon = system: KM12 colon
LOX IMVI melanoma = system: LOX IMVI melanoma
M14 melanoma = system: M14 melanoma
MALME-3M melanoma = system: MALME-3M melanoma
MCF7 breast = system: MCF7 breast
MDA-MB-231 breast = system: MDA-MB-231 breast
MDA-MB-468 breast = system: MDA-MB-468 breast
NCI-H226 lung = system: NCI-H226 lung
NCI-H23 lung = system: NCI-H23 lung
NCI-H460 lung = system: NCI-H460 lung
NCI-H522 lung = system: NCI-H522 lung
OVCAR-4 ovarian = system: OVCAR-4 ovarian
OVCAR-5 ovarian = system: OVCAR-5 ovarian
OVCAR-8 ovarian = system: OVCAR-8 ovarian
PC-3 prostate = system: PC-3 prostate
RPMI-8226 leukemia = system: RPMI-8226 leukemia
RXF 393 renal = system: RXF 393 renal
SF-268 CNS = system: SF-268 CNS
SF-295 CNS = system: SF-295 CNS
SF-539 CNS = system: SF-539 CNS
SK-MEL-2 melanoma = system: SK-MEL-2 melanoma
SK-OV-3 ovarian = system: SK-OV-3 ovarian
SN12C renal = system: SN12C renal
SNB-19 CNS = system: SNB-19 CNS
SNB-75 CNS = system: SNB-75 CNS
T-47D breast = system: T-47D breast
TK-10 renal = system: TK-10 renal
U251 CNS = system: U251 CNS
UACC-62 melanoma = system: UACC-62 melanoma

COc1cc(/C=C/C(=O)c2nnn(-c3ccc(Cl)cc3)c2C)cc(OC)c1OC
84.3 µM: TGI (BT-549 breast)
62 µM: TGI (786-0 renal)
23.6 µM: TGI (HOP-92 NSCLC)
inactive: GI50 (786-0 renal) 8.67 µM | GI50 (A498 renal) > 100 µM | GI50 (A549 NSCLC) 6.11 µM | GI50 (ACHN renal) 5.82 µM | GI50 (BT-549 breast) 4.23 µM | GI50 (CAKI-1 renal) 4.46 µM | GI50 (COLO 205 colon) > 100 µM | GI50 (DU-145 prostate) 3.62 µM | GI50 (HCC-2998 colon) > 100 µM | GI50 (HCT-116 colon) 3.55 µM | GI50 (HCT-15 colon) 3.23 µM | GI50 (HOP-62 NSCLC) 11 µM | GI50 (HOP-92 NSCLC) 2.55 µM | GI50 (HS 578T breast) 5.47 µM | GI50 (HT29 colon) 4.1 µM | GI50 (IGROV1 ovarian) > 100 µM | GI50 (KM12 colon) 8.53 µM | GI50 (LOX IMVI melanoma) 3.06 µM | GI50 (M14 melanoma) 3.59 µM | GI50 (MALME-3M melanoma) 7.35 µM | GI50 (MCF7 breast) 3.23 µM | GI50 (MDA-MB-231 breast) 3.48 µM | GI50 (MDA-MB-468 breast) 3.38 µM | GI50 (NCI-H226 lung) 7.53 µM | GI50 (NCI-H23 lung) 6.2 µM | GI50 (NCI-H460 lung) 3.59 µM | GI50 (NCI-H522 lung) 4.06 µM | GI50 (OVCAR-4 ovarian) 4.25 µM | GI50 (OVCAR-5 ovarian) > 100 µM | GI50 (OVCAR-8 ovarian) 4.15 µM | GI50 (PC-3 prostate) 3.53 µM | GI50 (RPMI-8226 leukemia) 2.22 µM | GI50 (RXF 393 renal) 6.39 µM | GI50 (SF-268 CNS) 20.9 µM | GI50 (SF-295 CNS) 41.4 µM | GI50 (SF-539 CNS) > 100 µM | GI50 (SK-MEL-2 melanoma) > 100 µM | GI50 (SK-OV-3 ovarian) > 100 µM | GI50 (SN12C renal) 4.15 µM | GI50 (SNB-19 CNS) 14.7 µM | GI50 (SNB-75 CNS) 2.83 µM | GI50 (T-47D breast) > 100 µM | GI50 (TK-10 renal) > 100 µM | GI50 (U251 CNS) 4.1 µM | GI50 (UACC-62 melanoma) 5.59 µM
> 100 µM: TGI (A498 renal) | TGI (A549 NSCLC) | TGI (ACHN renal) | TGI (CAKI-1 renal) | TGI (COLO 205 colon) | TGI (DU-145 prostate) | TGI (HCC-2998 colon) | TGI (HCT-116 colon) | TGI (HCT-15 colon) | TGI (HOP-62 NSCLC) | TGI (HS 578T breast) | TGI (HT29 colon) | TGI (IGROV1 ovarian) | TGI (KM12 colon) | TGI (LOX IMVI melanoma) | TGI (M14 melanoma) | TGI (MALME-3M melanoma) | TGI (MCF7 breast) | TGI (MDA-MB-231 breast) | TGI (MDA-MB-468 breast) | TGI (NCI-H226 lung) | TGI (NCI-H23 lung) | TGI (NCI-H460 lung) | TGI (NCI-H522 lung) | TGI (OVCAR-4 ovarian) | TGI (OVCAR-5 ovarian) | TGI (OVCAR-8 ovarian) | TGI (PC-3 prostate) | TGI (RPMI-8226 leukemia) | TGI (RXF 393 renal) | TGI (SF-268 CNS) | TGI (SF-295 CNS) | TGI (SF-539 CNS) | TGI (SK-MEL-2 melanoma) | TGI (SK-OV-3 ovarian) | TGI (SN12C renal) | TGI (SNB-19 CNS) | TGI (SNB-75 CNS) | TGI (T-47D breast) | TGI (TK-10 renal) | TGI (U251 CNS) | TGI (UACC-62 melanoma)
